Laboratory results from ChEMBL document CHEMBL4385598, “A comprehensive review of topoisomerase inhibitors as anticancer agents in the past decade” (Eur J Med Chem, 2019).

Tests used:
T47D = assay: Cytotoxicity against human T47D cells assessed as reduction in cell growth preincubated for 4 hrs in FBS starvation condition followed by incubation for 2 days by CCK8-based cell counting method; type: functional
HeLa [1] = assay: Cytotoxicity against human HeLa cells assessed as reduction in cell growth incubated for 48 hrs by SRB assay; type: functional, cell-based
Ca-Ski = assay: Cytotoxicity against human CaSki cells assessed as reduction in cell growth incubated for 48 hrs by SRB assay; type: functional, cell-based
HL-60 = assay: Antitumor activity against human HL60 cells assessed as reduction in cell viability by MTT assay; type: functional, cell-based
L1210 = assay: Antitumor activity against mouse L1210 cells assessed as reduction in cell viability by MTT assay; type: functional, cell-based
HeLa [2] = assay: Antiproliferative activity against human HeLa cells assessed as reduction in cell growth incubated for 48 hrs by MTT assay; type: functional, cell-based
K562 = assay: Antiproliferative activity against human K562 cells assessed as reduction in cell growth incubated for 48 hrs by MTT assay; type: functional, cell-based; conditions: K562, 48 h
K562/A02 = assay: Antiproliferative activity against human K562/A02 cells assessed as reduction in cell growth incubated for 48 hrs by MTT assay; type: functional, cell-based; conditions: K562/A02, 48 h
HCT-116 = assay: Cytotoxicity against human HCT116 cells assessed as reduction in cell growth by WST-1 assay; type: functional, cell-based
[3] = molecular target: DNA topoisomerase 2-alpha (Homo sapiens) (UniProt P11388); assay: Inhibition of human DNA topoisomerase 2 using supercoiled pBR322 plasmid DNA as substrate at 20 uM after 30 mins by agarose gel electrophoresis method relative to control
[4] = molecular target: T1, DNA topoisomerase I (Bos taurus) (UniProt F1MN93); assay: Inhibition of calf thymus DNA topoisomerase 1 using supercoiled pBR322 plasmid DNA as substrate at 20 uM after 30 mins by agarose gel electrophoresis method relative to control
T1 sequence (whole entry): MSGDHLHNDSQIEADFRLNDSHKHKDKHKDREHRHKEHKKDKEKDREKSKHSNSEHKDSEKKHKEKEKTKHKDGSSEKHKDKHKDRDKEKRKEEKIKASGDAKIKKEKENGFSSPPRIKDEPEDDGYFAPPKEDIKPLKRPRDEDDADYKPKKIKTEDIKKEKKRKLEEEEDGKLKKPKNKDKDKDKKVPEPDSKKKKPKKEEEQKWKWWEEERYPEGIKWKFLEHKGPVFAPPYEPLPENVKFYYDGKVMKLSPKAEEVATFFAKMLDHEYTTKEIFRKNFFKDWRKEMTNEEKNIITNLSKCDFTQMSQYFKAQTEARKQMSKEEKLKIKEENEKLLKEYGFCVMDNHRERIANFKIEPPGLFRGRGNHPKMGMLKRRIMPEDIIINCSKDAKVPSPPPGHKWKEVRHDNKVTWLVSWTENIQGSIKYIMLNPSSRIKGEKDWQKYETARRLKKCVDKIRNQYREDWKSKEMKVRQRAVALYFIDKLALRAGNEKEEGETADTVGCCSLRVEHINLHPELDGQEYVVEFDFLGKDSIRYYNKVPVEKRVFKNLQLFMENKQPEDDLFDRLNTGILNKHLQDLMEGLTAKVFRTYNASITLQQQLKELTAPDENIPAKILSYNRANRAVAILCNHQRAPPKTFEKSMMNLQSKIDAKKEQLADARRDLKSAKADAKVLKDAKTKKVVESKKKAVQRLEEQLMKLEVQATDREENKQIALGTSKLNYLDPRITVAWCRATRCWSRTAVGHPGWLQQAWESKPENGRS

A549 = assay: Cytotoxicity against human A549 cells assessed as reduction in cell viability incubated for 24 hrs by MTT assay; type: functional, cell-based; conditions: A549, 24 h

Chain of DNA topoisomerase 2-alpha (Homo sapiens) (P11388 whole entry): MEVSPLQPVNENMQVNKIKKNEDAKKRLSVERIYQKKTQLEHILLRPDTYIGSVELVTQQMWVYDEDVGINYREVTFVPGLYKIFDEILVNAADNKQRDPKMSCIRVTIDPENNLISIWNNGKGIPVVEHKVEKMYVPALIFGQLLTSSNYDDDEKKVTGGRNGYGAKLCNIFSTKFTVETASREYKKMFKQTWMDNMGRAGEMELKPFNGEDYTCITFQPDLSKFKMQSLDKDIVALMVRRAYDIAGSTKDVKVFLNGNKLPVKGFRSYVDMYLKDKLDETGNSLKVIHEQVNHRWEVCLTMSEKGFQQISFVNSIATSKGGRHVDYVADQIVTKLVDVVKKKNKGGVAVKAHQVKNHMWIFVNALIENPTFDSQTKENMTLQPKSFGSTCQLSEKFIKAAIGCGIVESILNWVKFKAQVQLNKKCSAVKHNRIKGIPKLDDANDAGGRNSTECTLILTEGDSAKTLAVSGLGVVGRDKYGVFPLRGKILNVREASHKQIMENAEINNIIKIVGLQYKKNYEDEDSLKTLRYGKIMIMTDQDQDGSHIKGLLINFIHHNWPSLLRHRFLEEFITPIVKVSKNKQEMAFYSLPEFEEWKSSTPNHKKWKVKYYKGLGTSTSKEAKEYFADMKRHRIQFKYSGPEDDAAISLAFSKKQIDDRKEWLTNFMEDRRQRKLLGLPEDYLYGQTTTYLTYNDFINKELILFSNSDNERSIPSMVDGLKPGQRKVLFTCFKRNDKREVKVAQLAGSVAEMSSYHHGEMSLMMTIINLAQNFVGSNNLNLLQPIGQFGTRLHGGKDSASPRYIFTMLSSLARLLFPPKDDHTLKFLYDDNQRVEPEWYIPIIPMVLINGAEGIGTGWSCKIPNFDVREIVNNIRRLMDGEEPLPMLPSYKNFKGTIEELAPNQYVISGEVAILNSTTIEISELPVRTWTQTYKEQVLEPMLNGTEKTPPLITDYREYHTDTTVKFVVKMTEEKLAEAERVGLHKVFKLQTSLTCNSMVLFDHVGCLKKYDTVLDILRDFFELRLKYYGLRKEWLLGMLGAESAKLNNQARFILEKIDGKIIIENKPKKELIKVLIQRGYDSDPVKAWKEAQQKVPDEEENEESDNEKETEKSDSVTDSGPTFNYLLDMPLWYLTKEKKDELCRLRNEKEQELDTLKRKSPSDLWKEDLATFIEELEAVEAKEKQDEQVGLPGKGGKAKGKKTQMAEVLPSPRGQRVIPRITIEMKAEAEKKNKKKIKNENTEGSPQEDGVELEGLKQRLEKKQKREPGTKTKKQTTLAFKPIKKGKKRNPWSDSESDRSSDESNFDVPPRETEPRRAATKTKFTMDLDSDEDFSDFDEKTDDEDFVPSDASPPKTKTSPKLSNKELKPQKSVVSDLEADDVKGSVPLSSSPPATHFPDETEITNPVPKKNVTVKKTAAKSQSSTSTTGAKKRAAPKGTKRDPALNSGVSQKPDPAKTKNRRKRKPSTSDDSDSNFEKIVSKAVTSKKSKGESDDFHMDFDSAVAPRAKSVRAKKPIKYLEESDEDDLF

SMILES: Oc1cccc(-c2cc(-c3ccccc3Cl)cc(-c3ccsc3)n2)c1
- IC50 (T47D): 0.68 to 1.25 µM

SMILES: COc1cc(CN2CCN(c3ccccc3Cl)CC2)c2cc3[n+](cc2c1OC)CCc1cc2c(cc1-3)OCO2.[Cl-]
- IC50 (HeLa [1]): < 6 µg/mL
- IC50 (Ca-Ski): < 6 µg/mL

SMILES: Oc1cccc(-c2cc(-c3cccc(Cl)c3)cc(-c3cccs3)n2)c1
- IC50 (T47D): 0.68 to 1.25 µM

SMILES: COc1cc(CN2CCN(c3ccc(C(F)(F)F)cc3)CC2)c2cc3[n+](cc2c1OC)CCc1cc2c(cc1-3)OCO2.[Cl-]
- IC50 (HeLa [1]): < 6 µg/mL
- IC50 (Ca-Ski): < 6 µg/mL

SMILES: Oc1cccc(-c2cc(-c3cccc(Cl)c3)cc(-c3ccco3)n2)c1
- IC50 (T47D): 0.68 to 1.25 µM

SMILES: COc1cc(CN2CCN(c3ccc(F)cc3)CC2)c2cc3[n+](cc2c1OC)CCc1cc2c(cc1-3)OCO2.[Cl-]
- IC50 (HeLa [1]): < 6 µg/mL
- IC50 (Ca-Ski): < 6 µg/mL

SMILES: COc1cc(CN2CCN(c3cccc(Cl)c3)CC2)c2cc3[n+](cc2c1OC)CCc1cc2c(cc1-3)OCO2.[Cl-]
- IC50 (HeLa [1]): < 6 µg/mL
- IC50 (Ca-Ski): < 6 µg/mL

SMILES: COc1ccc(/C=N/NC(=O)c2cn(C3CC3)c3cc(N/N=C/c4ccc(OC)cc4)c(F)cc3c2=O)cc1
- IC50 (HL-60): ≤ 25 µM
- IC50 (L1210): ≤ 25 µM

SMILES: Oc1ccc(-c2cc(-c3ccccc3Cl)cc(-c3ccco3)n2)cc1
- IC50 (T47D): 0.68 to 1.25 µM

SMILES: COc1cc(CN2CCN(c3ccccc3F)CC2)c2cc3[n+](cc2c1OC)CCc1cc2c(cc1-3)OCO2.[Cl-]
- IC50 (HeLa [1]): < 6 µg/mL
- IC50 (Ca-Ski): < 6 µg/mL

SMILES: COc1ccc(/C=N/NC(=O)c2cn(C3CC3)c3cc(N4CCNCC4)c(F)cc3c2=O)cc1
- IC50 (HL-60): ≤ 25 µM
- IC50 (L1210): ≤ 25 µM

SMILES: COc1ccc(/C=N/NC(=O)c2cn(C3CC3)c3cc(N/N=C/c4ccc(OC)c(O)c4)c(F)cc3c2=O)cc1O
- IC50 (HL-60): ≤ 25 µM
- IC50 (L1210): ≤ 25 µM

SMILES: O=C(N/N=C/c1ccccc1)c1cn(C2CC2)c2cc(N/N=C/c3ccccc3)c(F)cc2c1=O
- IC50 (HL-60): ≤ 25 µM
- IC50 (L1210): ≤ 25 µM

SMILES: Oc1cccc(-c2cc(-c3ccc(Cl)cc3)cc(-c3ccccc3)n2)c1
- IC50 (T47D): 0.68 to 1.25 µM

SMILES: COc1cc(CN2CCN(c3ccc(C)cc3)CC2)c2cc3[n+](cc2c1OC)CCc1cc2c(cc1-3)OCO2.[Cl-]
- IC50 (HeLa [1]): < 6 µg/mL
- IC50 (Ca-Ski): < 6 µg/mL

SMILES: O=C(N/N=C/c1ccccc1[N+](=O)[O-])c1cn(C2CC2)c2cc(N/N=C/c3ccccc3[N+](=O)[O-])c(F)cc2c1=O
- IC50 (HL-60): ≤ 25 µM
- IC50 (L1210): ≤ 25 µM

SMILES: O=C(N/N=C/c1ccc(F)cc1)c1cn(C2CC2)c2cc(N3CCNCC3)c(F)cc2c1=O
- IC50 (HL-60): ≤ 25 µM
- IC50 (L1210): ≤ 25 µM

SMILES: O=C(N/N=C/c1ccc2c(c1)OCO2)c1cn(C2CC2)c2cc(N3CCNCC3)c(F)cc2c1=O
- IC50 (HL-60): ≤ 25 µM
- IC50 (L1210): ≤ 25 µM

SMILES: COc1cc([C@@H]2c3cc4c(cc3[C@@H](NC/C=C/c3ccc(CN5CCN(c6ccc([N+](=O)[O-])cc6)CC5)o3)[C@H]3COC(=O)[C@H]23)OCO4)cc(OC)c1OC
- IC50 (HeLa [2]): 7.93 µM
- IC50 (K562): 6.42 µM
- IC50 (K562/A02): 6.89 µM

SMILES: O=c1c(O)c(-c2cc(O)c(O)c(O)c2)oc2cc(O)cc(O)c12 [MYRICETIN]
- IC50 (HCT-116): 28.2 µM

SMILES: Oc1cccc(-c2cc(-c3ccc(Cl)cc3)cc(-c3ccco3)n2)c1
- IC50 (T47D): 0.68 to 1.25 µM

SMILES: COc1cc(CN2CCN(c3ccc(OC(F)(F)F)cc3)CC2)c2cc3[n+](cc2c1OC)CCc1cc2c(cc1-3)OCO2.[Cl-]
- IC50 (HeLa [1]): < 6 µg/mL
- IC50 (Ca-Ski): < 6 µg/mL

SMILES: O=C(N/N=C/c1ccc2c(c1)OCO2)c1cn(C2CC2)c2cc(N/N=C/c3ccc4c(c3)OCO4)c(F)cc2c1=O
- IC50 (HL-60): ≤ 25 µM
- IC50 (L1210): ≤ 25 µM

SMILES: COc1cc(/C=N/NC(=O)c2cn(C3CC3)c3cc(N/N=C/c4cc(OC)c(OC)c(OC)c4)c(F)cc3c2=O)cc(OC)c1OC
- IC50 (HL-60): ≤ 25 µM
- IC50 (L1210): ≤ 25 µM

SMILES: CCCCC[C@H](O)[C@@H](O)/C=C/[C@@H](O)CCCCCCCC(=O)O
- inhibition [3]: 97%
- inhibition [4]: 41%

SMILES: CC[C@@]1(O)C(=O)OCc2c1cc1n(c2=O)Cc2cc3ccccc3nc2-1
- inhibition [4]: 51%

SMILES: Oc1cccc(-c2cc(-c3cccc(Cl)c3)cc(-c3ccsc3)n2)c1
- IC50 (T47D): 0.68 to 1.25 µM

SMILES: CCCCCCCCCCCCCCCC(=O)O [PALMITIC ACID]
- IC50 (A549): 150 µM

SMILES: Oc1cccc(-c2cc(-c3ccccc3Cl)cc(-c3ccccc3)n2)c1
- IC50 (T47D): 0.68 to 1.25 µM

SMILES: Oc1cccc(-c2cc(-c3cccc(Cl)c3)cc(-c3ccccc3)n2)c1
- IC50 (T47D): 0.68 to 1.25 µM

SMILES: COc1cc(CN2CCN(c3ccccc3[N+](=O)[O-])CC2)c2cc3[n+](cc2c1OC)CCc1cc2c(cc1-3)OCO2.[Cl-]
- IC50 (HeLa [1]): < 6 µg/mL
- IC50 (Ca-Ski): < 6 µg/mL

SMILES: COc1ccc(/C=N/NC(=O)c2cn(C3CC3)c3cc(N4CCNCC4)c(F)cc3c2=O)cc1O
- IC50 (HL-60): ≤ 25 µM
- IC50 (L1210): ≤ 25 µM

SMILES: COc1cc(CN2CCN(c3ccc(Cl)cc3)CC2)c2cc3[n+](cc2c1OC)CCc1cc2c(cc1-3)OCO2.[Cl-]
- IC50 (HeLa [1]): < 6 µg/mL
- IC50 (Ca-Ski): < 6 µg/mL

SMILES: O=C(N/N=C/c1ccccc1)c1cn(C2CC2)c2cc(N3CCNCC3)c(F)cc2c1=O
- IC50 (HL-60): ≤ 25 µM
- IC50 (L1210): ≤ 25 µM

SMILES: COc1cc(/C=N/NC(=O)c2cn(C3CC3)c3cc(N4CCNCC4)c(F)cc3c2=O)cc(OC)c1OC
- IC50 (HL-60): ≤ 25 µM
- IC50 (L1210): ≤ 25 µM

SMILES: O=C(N/N=C/c1ccccc1O)c1cn(C2CC2)c2cc(N/N=C/c3ccccc3O)c(F)cc2c1=O
- IC50 (HL-60): ≤ 25 µM
- IC50 (L1210): ≤ 25 µM

SMILES: Oc1cccc(-c2cc(-c3ccc(Cl)cc3)cc(-c3ccsc3)n2)c1
- IC50 (T47D): 0.68 to 1.25 µM

SMILES: O=C(N/N=C/c1ccccc1[N+](=O)[O-])c1cn(C2CC2)c2cc(N3CCNCC3)c(F)cc2c1=O
- IC50 (HL-60): ≤ 25 µM
- IC50 (L1210): ≤ 25 µM

SMILES: O=C(N/N=C/c1ccccc1O)c1cn(C2CC2)c2cc(N3CCNCC3)c(F)cc2c1=O
- IC50 (HL-60): ≤ 25 µM
- IC50 (L1210): ≤ 25 µM

SMILES: O=C(N/N=C/c1ccc(F)cc1)c1cn(C2CC2)c2cc(N/N=C/c3ccc(F)cc3)c(F)cc2c1=O
- IC50 (HL-60): ≤ 25 µM
- IC50 (L1210): ≤ 25 µM

SMILES: COc1cc(CN2CCN(c3ccc([N+](=O)[O-])cc3)CC2)c2cc3[n+](cc2c1OC)CCc1cc2c(cc1-3)OCO2.[Cl-]
- IC50 (HeLa [1]): < 6 µg/mL
- IC50 (Ca-Ski): < 6 µg/mL
